Legend:
[1] = (§1) The drug is tested on Z-001 corresponding to mouse gut metagenome with ENA study accession number: PRJEB37062 and ENA sample accession number: ERS12561801 for biotransformation under anaerobic condition. The drug concentrations were measured over 9 timepoints collected between 0 and 24 hours of incubation by liquid-chromatography-coupled mass spectrometry (LC–MS); conditions: 2 µM
[2] = as §1, with “Z-028” for “Z-001”, “ERS12561827” for “ERS12561801”; conditions: 2 µM
[3] = human gut metagenome, 24 h, 2 µM
[4] = as §1, with “Z-013” for “Z-001”, “rabbit” for “mouse”, “ERS12561813” for “ERS12561801”; conditions: 2 µM
[5] = as §1, with “Z-011” for “Z-001”, “ERS12561811” for “ERS12561801”; conditions: 2 µM
[6] = human gut metagenome, 24 h, 2 µM; remark: listed apart in the source
[7] = as §1, with “Z-006” for “Z-001”, “ERS12561806” for “ERS12561801”; conditions: 2 µM
[8] = as §1, with “Z-008” for “Z-001”, “to” for “to mouse gut”, “ERS12561808” for “ERS12561801”; conditions: 2 µM
[9] = as §1, with “Z-023” for “Z-001”, “to” for “to mouse gut”, “ERS12561822” for “ERS12561801”; conditions: 2 µM
[10] = as §1, with “WLS-350” for “Z-001”, “human” for “mouse”, “ERS12561789” for “ERS12561801”; conditions: 2 µM
[11] = as §1, with “Z-010” for “Z-001”, “to” for “to mouse gut”, “ERS12561810” for “ERS12561801”; conditions: 2 µM
[12] = as §1, with “WLS-039” for “Z-001”, “human” for “mouse”, “ERS12561746” for “ERS12561801”; conditions: 2 µM
[13] = human gut metagenome, 24 h, 2 µM; remark: listed apart in the source
[14] = as §1, with “Z-018” for “Z-001”, “pig” for “mouse”, “ERS12561817” for “ERS12561801”; conditions: 2 µM
[15] = human gut metagenome, 24 h, 2 µM; remark: listed apart in the source
[16] = as §1, with “WLS-077” for “Z-001”, “human” for “mouse”, “ERS12561750” for “ERS12561801”; conditions: 2 µM
[17] = human gut metagenome, 24 h, 2 µM; remark: listed apart in the source
[18] = human gut metagenome, 24 h, 2 µM; remark: listed apart in the source
[19] = as §1, with “WLS-240” for “Z-001”, “human” for “mouse”, “ERS12561773” for “ERS12561801”; conditions: 2 µM
[20] = human gut metagenome, 24 h, 2 µM; remark: listed apart in the source
Note: call rule not given here.

SMILES | Bacterial Biotransformation [1] | Bacterial Biotransformation [2] | Bacterial Biotransformation [3] | Bacterial Biotransformation [4] | Bacterial Biotransformation [5] | Bacterial Biotransformation [6] | Bacterial Biotransformation [7] | Bacterial Biotransformation [8] | Bacterial Biotransformation [9] | Bacterial Biotransformation [10] | Bacterial Biotransformation [11] | Bacterial Biotransformation [12] | Bacterial Biotransformation [13] | Bacterial Biotransformation [14] | Bacterial Biotransformation [15] | Bacterial Biotransformation [16] | Bacterial Biotransformation [17] | Bacterial Biotransformation [18] | Bacterial Biotransformation [19] | Bacterial Biotransformation [20]
CCOc1ccccc1OCCN[C@H](C)Cc1ccc(OC)c(S(N)(=O)=O)c1.Cl [TAMSULOSIN HYDROCHLORIDE] | Compound NOT metabolized | Compound NOT metabolized | Compound NOT metabolized | Compound NOT metabolized | Compound NOT metabolized | Compound NOT metabolized | Compound NOT metabolized | Compound NOT metabolized | Compound metabolized | Compound NOT metabolized | Compound NOT metabolized | Compound NOT metabolized | Compound metabolized | Compound NOT metabolized | Compound NOT metabolized | Compound NOT metabolized | Compound NOT metabolized | Compound NOT metabolized | Compound NOT metabolized | Compound metabolized
CCCCCNC(=N)N/N=C/c1c[nH]c2ccc(OC)cc12.O=C(O)/C=C\C(=O)O [TEGASEROD MALEATE] | Compound NOT metabolized | Compound NOT metabolized | Compound NOT metabolized | Compound NOT metabolized | Compound NOT metabolized | Compound NOT metabolized | Compound NOT metabolized | Compound NOT metabolized | Compound metabolized | Compound NOT metabolized | Compound metabolized | Compound metabolized | Compound NOT metabolized | Compound NOT metabolized | Compound NOT metabolized | Compound metabolized | Compound NOT metabolized | Compound NOT metabolized | Compound NOT metabolized | Compound NOT metabolized
COc1cc2nc(N3CCN(C(=O)C4CCCO4)CC3)nc(N)c2cc1OC (stereo not given) [TERAZOSIN] | Compound NOT metabolized | Compound NOT metabolized | Compound NOT metabolized | Compound NOT metabolized | Compound metabolized | Compound NOT metabolized | Compound NOT metabolized | Compound NOT metabolized | Compound NOT metabolized | Compound NOT metabolized | Compound metabolized | Compound NOT metabolized | Compound metabolized | Compound metabolized | Compound NOT metabolized | Compound NOT metabolized | Compound metabolized | Compound NOT metabolized | Compound metabolized | Compound metabolized
c1ccc2[nH]c(-c3cscn3)nc2c1 [THIABENDAZOLE] | Compound NOT metabolized | Compound NOT metabolized | Compound NOT metabolized | Compound NOT metabolized | Compound NOT metabolized | Compound NOT metabolized | Compound NOT metabolized | Compound NOT metabolized | Compound NOT metabolized | Compound NOT metabolized | Compound NOT metabolized | Compound NOT metabolized | Compound NOT metabolized | Compound NOT metabolized | Compound NOT metabolized | Compound NOT metabolized | Compound NOT metabolized | Compound NOT metabolized | Compound metabolized | Compound NOT metabolized
CCN(CC)CCNC(=O)c1cc(S(C)(=O)=O)ccc1OC [TIAPRIDE] | Compound metabolized | Compound NOT metabolized | Compound NOT metabolized | Compound NOT metabolized | Compound metabolized | Compound NOT metabolized | Compound NOT metabolized | Compound NOT metabolized | Compound NOT metabolized | Compound NOT metabolized | Compound NOT metabolized | Compound NOT metabolized | Compound metabolized | Compound NOT metabolized | Compound NOT metabolized | Compound NOT metabolized | Compound metabolized | Compound NOT metabolized | Compound metabolized | Compound NOT metabolized
CC(C)(C)NC[C@H](O)COc1nsnc1N1CCOCC1.O=C(O)/C=C\C(=O)O [TIMOLOL MALEATE] | Compound NOT metabolized | Compound NOT metabolized | Compound NOT metabolized | Compound NOT metabolized | Compound NOT metabolized | Compound NOT metabolized | Compound NOT metabolized | Compound NOT metabolized | Compound NOT metabolized | Compound NOT metabolized | Compound NOT metabolized | Compound NOT metabolized | Compound NOT metabolized | Compound NOT metabolized | Compound NOT metabolized | Compound NOT metabolized | Compound NOT metabolized | Compound NOT metabolized | Compound NOT metabolized | Compound NOT metabolized
CC[C@@]1(O)C(=O)OCc2c1cc1n(c2=O)Cc2cc3c(CN(C)C)c(O)ccc3nc2-1 [TOPOTECAN] | Compound NOT metabolized | Compound NOT metabolized | Compound NOT metabolized | Compound NOT metabolized | Compound NOT metabolized | Compound NOT metabolized | Compound NOT metabolized | Compound NOT metabolized | Compound NOT metabolized | Compound NOT metabolized | Compound NOT metabolized | Compound NOT metabolized | Compound NOT metabolized | Compound NOT metabolized | Compound NOT metabolized | Compound NOT metabolized | Compound NOT metabolized | Compound NOT metabolized | Compound NOT metabolized | Compound NOT metabolized

Source: ChEMBL document CHEMBL5724914, “Linking interpersonal differences in gut microbiota composition and drug biotransformation activity” (2024)
